Measurements: the supplement of paper PMC8837787
Counter-ions that a name gives are not always drawn.

Test system: Saccharomyces cerevisiae ABC16-Green Monster
Details: 18 h; 30 °C; YPD
Procedure: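 Growth inhibition of the drug-sensitive S. cerevisiae ABC16-Green Monster strain (16 ABC transporters deleted) in YPD at 30 °C for 18 h. […] dilution series […] in biological replicates; IC50 from OD600 (18 h minus 0 h) fitted by variable-slope nonlinear regression in GraphPad Prism. Library compounds were first screened at 150 µM, and only those with at least 70% inhibition went to dose-response; the rest are marked inactive.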

CNCCC(Oc1ccc(C(F)(F)F)cc1)c1ccccc1 (stereo unspecified) [Fluoxetin]
IC50 growth inhibition: 59.5 µM

Cc1noc(C)c1C(=O)N1CCCC(c2[nH]c3c(C)cccc3c2-c2ccncc2)C1 (stereo unspecified)
IC50 growth inhibition: 20.8 µM

NCCN(C(=O)c1ccc(Cl)cc1Cl)c1ccc(OCc2ccc(Cl)cc2)cc1
IC50 growth inhibition: 10.5 µM

NC(=O)[C@@H](CC1CC1)[C@@H](CCC(F)(F)F)C(=O)N[C@H]1N=C(c2ccccc2)c2cccc(F)c2NC1=O
IC50 growth inhibition: 2.06 µM

O=C1C2=C(Nc3ccccc3SC2c2ccc(OCc3ccccc3)cc2)c2ccccc21 (stereo unspecified) [GNF-PF-5338]
IC50 growth inhibition: > 150 µM

CCCc1nn(C)c2c(=O)nc(-c3cc(S(=O)(=O)N4CCN(C)CC4)ccc3OCC)[nH]c12 [Sildenafil citrate]
IC50 growth inhibition: > 75 µM

CC(C)Sc1cccc(C(=O)Nc2nnc(-c3ccnn3C(C)C)o2)c1 [CBR113]
IC50 growth inhibition: 2.48 µM

CC1C=CC=CCCC=CC=CC=CC=CC(OC2OC(C)C(O)C(N)C2O)CC2OC(O)(CC(O)C(O)CCC(O)CC(O)CC(O)CC(=O)OC(C)C(C)C1O)CC(O)C2C(=O)O (stereo unspecified) [Nystatin]
IC50 growth inhibition: > 75 µM

O=c1c(Cl)c(Cl)cnn1-c1nc2ccccc2[nH]1
IC50 growth inhibition: 13.2 µM

Cc1c(C(=O)Nc2ccccc2O)cnn1-c1cccc(C(F)(F)F)c1
IC50 growth inhibition: 23.9 µM

Nc1[nH]c(=O)ncc1F [Flucytosine]
IC50 growth inhibition: 15.1 µM

Cc1ccc(S(=O)(=O)n2cc(-c3ccnc(N)c3)c3cc(Br)cnc32)cc1
IC50 growth inhibition: 6.17 µM

Cc1cc(Nc2nc(N[C@@H](C)c3ncc(F)cn3)ncc2Cl)n[nH]1 [AZD-1480]
IC50 growth inhibition: 58.6 µM

OC1=C2C(=Nc3ccccc3SC2c2ccco2)c2ccccc21 (stereo unspecified) [GNF-Pf-4283]
IC50 growth inhibition: 11 µM

O=C(O)c1ccc2c(c1)nc(Nc1cccc(Cl)c1)c1ccncc12 [Silmitasertib]
IC50 growth inhibition: > 75 µM

NC(=O)N1CCC(CC(=O)N2CCC([C@H]3c4ncc(Br)cc4CCc4cc(Cl)cc(Br)c43)CC2)CC1 [Lonarfanib]
IC50 growth inhibition: 20.4 µM

CC[C@H]1OC(=O)[C@H](C)[C@@H](O[C@H]2C[C@@](C)(OC)[C@@H](O)[C@H](C)O2)[C@H](C)[C@@H](O[C@@H]2O[C@H](C)C[C@H](N(C)C)[C@H]2O)[C@](C)(O)C[C@@H](C)C(=O)[C@H](C)[C@@H](O)[C@]1(C)O [Erythromycin]
IC50 growth inhibition: > 75 µM

CC1CCCC=CC2CC(O)CC2C(O)C=CC(=O)O1 (stereo unspecified) [Brefeldin A]
IC50 growth inhibition: 31.9 µM

Cc1nc(NC(=O)c2csc(NC3CCCC3)n2)sc1C
IC50 growth inhibition: 12.4 µM

Cc1nc2ccccc2nc1SC(C)C(=O)c1c[nH]c2ccccc12 (stereo unspecified)
IC50 growth inhibition: 33.8 µM

CCC(=C(c1ccccc1)c1ccc(OCCN(C)C)cc1)c1ccccc1 [Tamoxifen]
IC50 growth inhibition: 3.13 µM

COCCNc1cc(C(C)C)nc2c(-c3ccccc3)cnn12
IC50 growth inhibition: 52.6 µM

Cc1cccc(-n2ncc3c(=O)[nH]c(-n4nc(C)cc4NC(=O)c4cc5ccccc5o4)nc32)c1
IC50 growth inhibition: 7.06 µM

O[C@@H](c1cc(C(F)(F)F)nc2c(C(F)(F)F)cccc12)[C@H]1CCCCN1
IC50 growth inhibition: 45.6 µM

C[C@H]1Cc2c([nH]c3cc(Cl)c(F)cc23)[C@@]2(N1)C(=O)Nc1ccc(Cl)cc12 [KAE609]
IC50 growth inhibition: 7.65 µM

CC(=O)OC1C(=O)C2(C)C(O)CC3OCC3(OC(C)=O)C2C(OC(=O)c2ccccc2)C2(O)CC(OC(=O)C(O)C(NC(=O)c3ccccc3)c3ccccc3)C(C)=C1C2(C)C (stereo unspecified) [Paclitaxel]
IC50 growth inhibition: > 75 µM

Cc1cc(C(=O)Cn2nnc3ccccc3c2=O)c(C)n1-c1ccccc1F
IC50 growth inhibition: 20.5 µM

CC(=O)OC1c2nc(cs2)C(=O)OC(CCCC(C)(Cl)Cl)C(C)C(=O)OC(C(C)(C)O)c2nc(cs2)C(=O)OC1(C)C (stereo unspecified) [Hectochlorin]
IC50 growth inhibition: 0.25 µM

Cc1nc(C(=N)NOC(=O)c2c(-c3c(Cl)cccc3Cl)noc2C)cs1
IC50 growth inhibition: 21.2 µM

O=CN(O)CCCP(=O)(O)O [Fosmidomycin]
IC50 growth inhibition: > 75 µM

CC1(C)c2nc(-c3ccc(F)cc3)c(Nc3ccc(Cl)cc3)n2CCN1C(=O)CN [GNF179]
IC50 growth inhibition: 38 µM
